In PubChem BioAssay (NCI):
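Grown in 96-well plates, cells were treated for 48 hours with each compound at five concentrations. Insufficient inhibition: endpoint recorded as highest concentration tested. GI50: concentration for 50% inhibition of growth. TGI denotes the concentration required for complete inhibition of growth.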

Assays:
Test in all cases: inhibition of tumour cell growth, NCI panel, 48 h
NCI-H23 lung = tested on: NCI-H23 lung
KM12 colon = tested on: KM12 colon
HT29 colon = tested on: HT29 colon
M14 melanoma = tested on: M14 melanoma
CCRF-CEM leukemia = tested on: CCRF-CEM leukemia
SF-539 CNS = tested on: SF-539 CNS
OVCAR-8 ovarian = tested on: OVCAR-8 ovarian
HL-60(TB) leukemia = tested on: HL-60(TB) leukemia
LOX IMVI melanoma = tested on: LOX IMVI melanoma
SF-295 CNS = tested on: SF-295 CNS

| Structure (SMILES) | TGI (NCI-H23 lung) | TGI (KM12 colon) | TGI (HT29 colon) | TGI (M14 melanoma) | TGI (CCRF-CEM leukemia) | TGI (SF-539 CNS) | TGI (OVCAR-8 ovarian) | TGI (HL-60(TB) leukemia) | TGI (LOX IMVI melanoma) | TGI (SF-295 CNS) | GI50 (NCI-H23 lung) | GI50 (KM12 colon) | GI50 (HT29 colon) | GI50 (M14 melanoma) | GI50 (CCRF-CEM leukemia) | GI50 (SF-539 CNS) | GI50 (OVCAR-8 ovarian) | GI50 (HL-60(TB) leukemia) | GI50 (LOX IMVI melanoma) | GI50 (SF-295 CNS) |
| --- | --- | --- | --- | --- | --- | --- | --- | --- | --- | --- | --- | --- | --- | --- | --- | --- | --- | --- | --- | --- |
| C=CCC1(CN(C)C)CC/C(=C\c2ccc3c(c2)OCO3)C1=O (centres undefined) | > 100 µM | > 100 µM | > 100 µM | > 100 µM | 81.4 µM | > 100 µM | > 100 µM | 15.8 µM | > 100 µM | > 100 µM | – | – | – | – | – | – | – | – | – | – |
| COc1c(C(N)=O)cc(-c2ccc(Cl)cc2)cc1-c1ccc(S(N)(=O)=O)cc1 | > 25 µM | > 25 µM | > 25 µM | > 25 µM | > 25 µM | > 25 µM | > 25 µM | > 17.9 µM | > 25 µM | > 25 µM | > 18.3 µM | 11 µM | 11 µM | > 17.2 µM | 8.53 µM | 14.2 µM | 9.33 µM | 7.19 µM | 12.4 µM | 11.2 µM |
| Cc1cc(OCc2ccc(C(F)(F)F)cc2)c2c(c1)C(=O)C=C(NCCN1CCCC1)C2=O | 18.7 µM | 15.4 µM | 5.01 µM | 3.56 µM | 7.12 µM | 3.24 µM | 12.1 µM | 4.08 µM | 3.55 µM | 4 µM | 4.92 µM | 4.39 µM | 1.94 µM | 1.88 µM | 2.48 µM | 1.68 µM | 3.25 µM | 1.71 µM | 1.92 µM | 1.88 µM |
| CC(=O)OC1CC2(C)C(=CC1C1SCCS1)CCC1C2CCC2(C)C(OC(C)=O)CCC12 (centres undefined) | > 100 µM | > 100 µM | > 100 µM | > 100 µM | > 100 µM | > 100 µM | > 100 µM | > 100 µM | > 100 µM | 90 µM | – | – | – | – | – | – | – | – | – | – |
| CC1=C(CCC(C)CO)O[C@H]2C[C@H]3[C@@H]4CC[C@H]5C[C@@H](O)CC[C@]5(C)[C@H]4CC(=O)[C@]3(C)[C@@H]12 (some centres undefined) | 36.6 µM | 30.4 µM | 71.8 µM | 27 µM | 23.8 µM | 72.7 µM | 44.3 µM | 13.6 µM | 33.8 µM | > 49.9 µM | – | – | – | – | – | – | – | – | – | – |
| O=C(Nc1cccc([N+](=O)[O-])c1)c1cccc(C(=O)Nc2cccc([N+](=O)[O-])c2)c1 | > 100 µM | > 100 µM | > 100 µM | > 100 µM | > 100 µM | > 100 µM | > 100 µM | > 100 µM | > 100 µM | > 90.4 µM | > 72.4 µM | > 100 µM | > 100 µM | > 100 µM | > 100 µM | 27.8 µM | 14 µM | > 100 µM | > 100 µM | 23.2 µM |
| CC1Cc2c(Cl)ncnc2N(C)c2ccccc21 (centres undefined) | 10.9 µM | > 100 µM | 7.27 µM | 17.3 µM | > 100 µM | 37.2 µM | 27.3 µM | 15 µM | 3.43 µM | 37.4 µM | 2.82 µM | 3.33 µM | 2.47 µM | 2.77 µM | 4.53 µM | 4.56 µM | 3.42 µM | 3.39 µM | 1.71 µM | 3.28 µM |
| C[C@]12CC[C@H]3[C@@H](CC[C@]4(O)C[C@@H](O)CC[C@]34C=O)[C@@]1(O)CC[C@@H]2C1=CC(=O)OC1 | 1.12 µM | 6.66 µM | 2.03 µM | 3.51 µM | > 100 µM | 0.967 µM | 1.69 µM | 47.6 µM | 2.46 µM | 1.74 µM | – | – | – | – | – | – | – | – | – | – |
| Nc1nc(-c2ccc3c(c2)/C(=C\c2cc(Br)c(O)c(Br)c2)C(=O)N3)cs1 | > 25 µM | > 25 µM | > 25 µM | 11.8 µM | > 25 µM | > 25 µM | > 25 µM | > 22.6 µM | > 25 µM | > 25 µM | 14.3 µM | 10.4 µM | 11.2 µM | 5.02 µM | 9.36 µM | 11.9 µM | > 25 µM | 8.91 µM | 7.84 µM | 10.1 µM |
| O=C1/C=C/[C@@H](O)[C@@H]2C[C@@H](O)C[C@H]2/C=C/CCC[C@H](CCO)O1 | 2.3 µM | 0.268 µM | 1.31 µM | > 100 µM | > 100 µM | > 100 µM | – | 1.16 µM | 0.377 µM | > 100 µM | 0.227 µM | 0.0584 µM | 0.0841 µM | 0.155 µM | 0.362 µM | 0.469 µM | 0.153 µM | 0.315 µM | 0.157 µM | 0.29 µM |
| CC12CCC(C1)C(C)(C)C2OC(=O)c1ccccc1N (centres undefined) | 31.2 µM | 38 µM | 29.1 µM | 31.6 µM | 3.96 µM | 33.7 µM | 38.5 µM | 28.6 µM | 33.8 µM | 35.6 µM | – | – | – | – | – | – | – | – | – | – |
| CN1CCN(Cc2ccc(NC(=O)c3cncc(C#Cc4ccc(N)nc4)c3)cc2C(F)(F)F)CC1 | 6.27 µM | 5.3 µM | 4.59 µM | 1.63 µM | 11.8 µM | 1.66 µM | 9.9 µM | 2.25 µM | 1.28 µM | 4.79 µM | 1.3 µM | 0.0227 µM | 0.728 µM | 0.486 µM | 1.46 µM | 0.501 µM | 1.73 µM | 0.945 µM | 0.556 µM | 1.23 µM |
| COc1cc2[nH]c3c(c2cc1OC)CCN[C@@]31CC[C@@]2(CC3c4c(cc(OC)c(O)c42)CCN3C)C[C@@H]1OC (some centres undefined) | > 100 µM | > 85 µM | > 91.2 µM | 34.1 µM | 94.5 µM | 28.4 µM | > 100 µM | 30.7 µM | 41.4 µM | 47.3 µM | – | – | – | – | – | – | – | – | – | – |
| CC1=CC2(C)/C=C(C)/C=C\CC(O)/C=C3/C=CC(=C4C(=O)OC2(CC1C)C4=O)OC3 (centres undefined) | 7.82 µM | 10.5 µM | > 26.4 µM | 9.21 µM | 7.95 µM | 6.72 µM | 9.01 µM | > 20.5 µM | 3.2 µM | 32 µM | 2.66 µM | 3.17 µM | 2.4 µM | 2.8 µM | 0.673 µM | 2.49 µM | 2.12 µM | 0.6 µM | 1.63 µM | 8.31 µM |
| COC(=O)CC[C@@H](C)[C@H]1CC[C@H]2[C@@H]3CC[C@@H]4C[C@H](O)CC[C@]4(C)[C@H]3CC[C@]12C | 32.9 µM | 34.5 µM | 31.9 µM | 35.8 µM | 46.4 µM | 36 µM | 38.2 µM | 35.5 µM | 35.7 µM | 33.9 µM | – | – | – | – | – | – | – | – | – | – |
